Test results published in PMC9785606, “Design and Synthesis of Novel Phenylahistin Derivatives Based on Co-Crystal Structures as Potent Microtubule Inhibitors for Anti-Cancer Therapy” (Marine Drugs, 2022).
Marks after values point to notes of the source that are not given here.

Assays:
[1] = system: human lung cancer NCI-H460 cell line; test: MTT cytotoxicity assay, lung cancer NCI-H460 cell line; format: cell-based; conditions: mean ± SD
Experimental: (§1) Human cancer cell lines (lung cancer NCI-H460 cell line, pancreatic cancer BxPC-3 cell line, colon cancer HT-29 cell line) were purchased from American Type Cell Culture Collection (ATCC, Manassas, VA, USA). Cells were maintained in RPMI-1640 medium supplemented with 10% (v/v) heat-inactivated fetal bovine serum, penicillin-streptomycin (100 U/mL-100 […]) at 37 °C in a humidified atmosphere (5% CO2–95% air). All tested derivatives were dissolved in 100% cell culture grade DMSO. Cells (3 × 10^3 per well) were seeded in 96-well plates for 24 h. Then, cells were treated with the tested compounds in six concentrations for 72 h. Cell viability was assessed by MTT assay. The absorbance at 490 nm was measured with a Microplate Reader (Molecular Devices, Silicon Valley, CA, USA). The data were analyzed by Origin 8.5 (OriginLab, Northampton, MA, USA).

[2] = system: pancreatic cancer BxPC-3 cell line; test: MTT cytotoxicity assay, pancreatic cancer BxPC-3 cell line; format: cell-based; conditions: Homo sapiens, 72 h, mean ± SD
Experimental: as §1

[3] = system: colon cancer HT-29 cell line; test: MTT cytotoxicity assay, colon cancer HT-29 cell line; format: cell-based; conditions: Homo sapiens, 72 h, mean ± SD
Experimental: as §1

caspase-3 = test: Western blotting of caspase-3 expression; format: cell-based
Experimental: Western blot was performed as previously described with antibody caspase-3 (1:1000) (WB0177/WB0176) or GAPDH (1:3000) (WB0197/WB0196, Shanghai Wei-Ao Biotechnology Co., Shanghai, China). Densities of the Western blotting bands were quantified using ImageJ 19.0. (NIH, Bethesda, MD, USA).

[4] = system: H22 hepatoma carcinoma cells transplanted tumor; test: H22 subcutaneous transplanted tumor model, intravenous administration; conditions: for Tumor Volume (D15): 14 consecutive days; for Tumor Volume (D1): D1 (baseline), mean ± SD; for Tumor Weight: excised at end of administration; for IR (tumor weight inhibition rate): IR = (1 − TWt/TWc) × 100%
Experimental: The anticancer effect of the compound 15p was further evaluated against H22 tumor-bearing mice models by intravenous injection at doses of 2 mg/kg, or 4 mg/kg, two or three times a week, and for 14 consecutive days. Docetaxel (10 mg/kg), plinabulin (4 mg/kg), and cyclophosphamide (20 mg/kg) were used as the positive controls.
Balb/c mice (4–6 weeks old, 16–18 g) were purchased from Shanghai Sippr-BK laboratory animal Co. Ltd. The animal study protocol was approved by Institutional Review Board of Science and Technology Division of Linyi University (review opinion on behalf of the Ethics Committee) (The protocol code is LYU20220107, provided on 10 March 2022). H22 cells were grown in RPMI-1640 midium supplemented with 10% fetal bovine serum, and maintained at 37 °C in humidified 5% CO2. Cells were passaged when they reached 70–80% confluence. Viable H22 cells (1 × 10^7 cells/0.2 ml 0.9% sodium chloride) were injected into the peritoneal cavity of BALB/C mice to trigger ascitic cell growth. Later, cells were harvested and suspended. H22 cancer cells (2 × 10^7 cells/0.1 ml 0.9% sodium chloride cells) were subcutaneously injected into the right flank of each mouse. After implantation, the tumor size was measured with an electronic caliper twice a week, and the tumor volume was calculated according to the following formula: tumor volume (mm^3) = 0.5 × length × width^2. When the tumor volume reached about 130 mm^3, the xenograft tumor-bearing BALB/C mice were randomly placed into six groups at 10 mice per group: vehicle, plinabulin (4 mg/kg), 15p ([…]), 15p ([…]), cyclophosphamide (20 mg/kg) and docetaxel (10 mg/kg) groups. Docetaxel, plinabulin, and cyclophosphamide were chosen as positive control drug. The reference compound docetaxel and cyclophosphamide were completely dissolved in isotonic saline. […] The solution of compound 15p was diluted with the concentrated solution and in isotonic saline at a calculated ratio. The solutions of plinabulin were made up according to similar methods. The mice received intravenous administration (iv) every two or three days for consecutive 14 days. The tumor volumes and the body weights were recorded every two or three days after treatment. At the end of the administration period, the animals were euthanized by dislocation, and the tumor bulks were peeled off conforming to the Guide for the Animal use and Management of Shanghai Medicilon Biological Medicine Co. Ltd. The tumor volume was calculated according to the Principles of Non-clinical Research Techniques for Anti-tumor Drugs of Cytotoxic Drugs by China Food and Drug Administration.

[5] = system: microtubules in NCI-H460 cells; test: Immunofluorescence assay of microtubules (β-tubulin/DAPI staining); format: cell-based, human; conditions: 24 h
Experimental: To further explore the effect of phenylahistin derivatives 1 and 15p on microtubules in cancer cells, an immunofluorescence assay was performed. […] The inhibitory activities were consistent with the previously shown anti-proliferative activities.
NCI-H460 cells were seeded in 24-well plate (with coverslips plated) at the density of 5 × 10^4 cells. […] Then, cells were fixed with 4% cold paraformaldehyde at 4 °C for 15 min and then permeabilized in 0.05% Triton X-100 for 10 min. The cells were blocked in 1% BSA for 30 min. Microtubules were detected by incubation with a monoclonal anti-β-tubulin (β-tubulin antibody was obtained from Servicebio, Wuhan, China.) at 4 °C for 12 h. Subsequently, the cells were washed with PBS and incubated with a FITC-conjugated anti-mouse IgG antibody. Nuclei were stained with DAPI (G1012, Servicebio, Wuhan, China). The coverslips were visualized under fluorescence microscope (Nikon Eclipse C1, Nikon, Japan) and an image-forming system (Nikon DS-U3, Nikon, Tokyo, Japan).

[6] = 20 mg/kg iv, listed as cyclophosphamide
[7] = 10 mg/kg iv, listed as docetaxel
[8] = 4 mg/kg iv, listed as plinabulin

| SMILES | melting point [°C] | IC50 ([1]; Homo sapiens, NCI-H460, 72 h) [nM] | other results |
| --- | --- | --- | --- |
| CCn1cnc(/C=c2\[nH]c(=O)/c(=C/c3cccc(C(=O)c4ccc(F)cc4)c3)[nH]c2=O)c1C [15d] | 227 to 229 | 16.9 ± 1.5 | – |
| CCn1cnc(/C=c2\[nH]c(=O)/c(=C/c3cccc(C(=O)c4ccc(F)cc4)c3)[nH]c2=O)c1C(C)C [15f] | 234 to 236 | 2.01 ± 0.19 | – |
| CCCn1cnc(/C=c2\[nH]c(=O)/c(=C/c3cccc(C(=O)c4ccc(F)cc4)c3)[nH]c2=O)c1C [15g] | 214 to 216 | 4.93 ± 0.25 | – |
| CCCn1cnc(/C=c2\[nH]c(=O)/c(=C/c3cccc(Oc4ccc(F)cc4)c3)[nH]c2=O)c1C(C)C [15h] | 201 to 203 | 5.4 ± 0.15 | – |
| CCCn1cnc(/C=c2\[nH]c(=O)/c(=C/c3cccc(C(=O)c4ccc(F)cc4)c3)[nH]c2=O)c1C(C)C [15i] | 200 to 202 | 1.67 ± 0.15 | – |
| CC(C)c1c(/C=c2\[nH]c(=O)/c(=C/c3cccc(C(=O)c4ccc(F)cc4)c3)[nH]c2=O)ncn1CCCNC(=O)OC(C)(C)C [15o] | 179 to 180 | 12.7 ± 0.71 | – |
| Cc1c(/C=c2\[nH]c(=O)/c(=C/c3cccc(C(=O)c4ccc(F)cc4)c3)[nH]c2=O)ncn1CCN [16a] | 180 to 182 | 33.4 ± 9.59 | – |
| Cc1c(/C=c2\[nH]c(=O)/c(=C/c3cccc(C(=O)c4ccc(F)cc4)c3)[nH]c2=O)ncn1CCCN [16c] | 247 to 248 | 103 ± 11.7 | – |
| CC(C)c1c(/C=c2\[nH]c(=O)/c(=C/c3cccc(C(=O)c4ccc(F)cc4)c3)[nH]c2=O)ncn1CCCN [16d] | 199 to 201 | 5.38 ± 1.46 | IC50 [2]: 2.35 ± 1.75 nM; IC50 [3]: 2.45 ± 0.42 nM |
| O=P1(N(CCCl)CCCl)NCCCO1 (stereo not drawn) [Cyclophosphamide] | – | – | Body weight compared to the control group ([4]; 20 mg/kg iv): decreased the body weights; Tumor Volume (D15) ([4]; 20 mg/kg iv): 687.2 ± 288.6* mm^3; Tumor Volume (D15) [4, 6]: 687.2 mm^3; Tumor Volume (D1) ([4]; 20 mg/kg iv): 105.1 ± 30.26 mm^3; Tumor Weight ([4]; 20 mg/kg iv): 0.42 ± 0.24 g; Tumor Weight [4, 6]: 0.42 g; IR (tumor weight inhibition rate) ([4]; 20 mg/kg iv): 62.6% |
| CC(=O)O[C@@]12CO[C@@H]1C[C@H](O)[C@@]1(C)C(=O)[C@H](O)C3=C(C)[C@@H](OC(=O)[C@H](O)[C@@H](NC(=O)OC(C)(C)C)c4ccccc4)C[C@@](O)([C@@H](OC(=O)c4ccccc4)[C@H]21)C3(C)C [Docetaxel] | – | – | Tumor Volume (D15) ([4]; 10 mg/kg iv): 903.6 ± 421.7* mm^3; Tumor Volume (D15) [4, 7]: 903.6 mm^3; Tumor Volume (D1) ([4]; 10 mg/kg iv): 103.6 ± 30.75 mm^3; Tumor Weight ([4]; 10 mg/kg iv): 0.55 ± 0.22 g; Tumor Weight [4, 7]: 0.55 g; IR (tumor weight inhibition rate) ([4]; 10 mg/kg iv): 51.6% |
| CC(C)(C)c1[nH]cnc1/C=c1\[nH]c(=O)/c(=C/c2ccccc2)[nH]c1=O [Plinabulin] | – | 26.2 ± 3.2 | IC50 [2]: 5.8 ± 0.2 nM; IC50 [3]: 6.6 ± 1.6 nM; Tumor Volume (D15) ([4]; 4 mg/kg iv): 1425.3 ± 411.2 mm^3; Tumor Volume (D15) [4, 8]: 1425.3 mm^3; Tumor Volume (D1) ([4]; 4 mg/kg iv): 104.7 ± 26.66 mm^3; Tumor Weight ([4]; 4 mg/kg iv): 0.77 ± 0.31 g; Tumor Weight [4, 8]: 0.77 g; IR (tumor weight inhibition rate) ([4]; 4 mg/kg iv): 31.9%; Effect on microtubule networks ([5]; 10 nM): microtubule networks were damaged |
| CC(C)(C)c1[nH]cnc1/C=c1\[nH]c(=O)/c(=C/c2cccc(C(=O)c3ccc(F)cc3)c2)[nH]c1=O [compound 1] | – | – | Effect on microtubule networks ([5]; 2 nM): microtubule networks were damaged |

Now from value to compound, other results behind:

| melting point [°C] | SMILES | IC50 ([1]; Homo sapiens, NCI-H460, 72 h) [nM] | other results |
| --- | --- | --- | --- |
| 224 to 226 | Cc1c(/C=c2\[nH]c(=O)/c(=C/c3cccc(C(=O)c4ccc(F)cc4)c3)[nH]c2=O)ncn1C [15a] | 21.1 | IC50 ([1]; 72 h): 21.1 ± 1.3 nM |
| 218 to 219 | CC(C)c1c(/C=c2\[nH]c(=O)/c(=C/c3cccc(Oc4ccc(F)cc4)c3)[nH]c2=O)ncn1C [15b] | 40.4 ± 0.82 | – |
| 225 to 227 | CC(C)c1c(/C=c2\[nH]c(=O)/c(=C/c3cccc(C(=O)c4ccc(F)cc4)c3)[nH]c2=O)ncn1C [15c] | 3.65 ± 0.18 | – |
| 195 to 198 | CCn1cnc(/C=c2\[nH]c(=O)/c(=C/c3cccc(Oc4ccc(F)cc4)c3)[nH]c2=O)c1C(C)C [15e] | 12.2 ± 0.27 | – |
| 203 to 204 | CCCCn1cnc(/C=c2\[nH]c(=O)/c(=C/c3cccc(Oc4ccc(F)cc4)c3)[nH]c2=O)c1C(C)C [15j] | 2.49 ± 0.28 | IC50 [2]: 1.13 ± 0.35 nM; IC50 [3]: 2.11 ± 0.09 nM; Expression of caspase-3 vs control group and plinabulin group (caspase-3): significantly higher |
| 198 to 201 | CCCCn1cnc(/C=c2\[nH]c(=O)/c(=C/c3cccc(C(=O)c4ccc(F)cc4)c3)[nH]c2=O)c1C(C)C [15k] | 0.94 ± 0.11 | – |
| 189 to 191 | Cc1c(/C=c2\[nH]c(=O)/c(=C/c3cccc(C(=O)c4ccc(F)cc4)c3)[nH]c2=O)ncn1CCNC(=O)OC(C)(C)C [15l] | 105 ± 11.7 | – |
| 204 to 206 | CC(C)c1c(/C=c2\[nH]c(=O)/c(=C/c3cccc(C(=O)c4ccc(F)cc4)c3)[nH]c2=O)ncn1CCNC(=O)OC(C)(C)C [15m] | 27.3 ± 1.32 | – |
| 206 to 208 | Cc1c(/C=c2\[nH]c(=O)/c(=C/c3cccc(C(=O)c4ccc(F)cc4)c3)[nH]c2=O)ncn1CCCNC(=O)OC(C)(C)C [15n] | 145.7 ± 0.27 | – |
| 150 to 152 | C#CCn1cnc(/C=c2\[nH]c(=O)/c(=C/c3cccc(C(=O)c4ccc(F)cc4)c3)[nH]c2=O)c1C(C)C [15q] | 1.49 ± 0.31 | IC50 [2]: 1.15 ± 0.042 nM; IC50 [3]: 0.67 ± 0.035 nM |
| 190 to 192 | CC(C)c1c(/C=c2\[nH]c(=O)/c(=C/c3cccc(C(=O)c4ccc(F)cc4)c3)[nH]c2=O)ncn1CCN [16b] | 11.3 | IC50 [2]: 3.27 ± 0.09 nM; IC50 [3]: 5.92 ± 0.39 nM; IC50 ([1]; 72 h): 11.3 ± 3.45 nM |
